Assay results reported in PMC6151710 (Molecules : A Journal of Synthetic Chemistry and Natural …, 2017).
Like-named read-outs stand apart in the source and are kept apart here.

Key:
KunMing (KM) mice = assay: Hepatotoxicity study in mice (GSH-depleted by BSO, CYP450 inhibition by ABT): ALT, hepatic GSH, histopathology; settings: for ALT activity with additional ABT treatment / histopathological evaluation of liver, with ABT: 300 mg/kg oral alone or with BSO, plus ABT 100 mg/kg i.p.; for hepatic GSH level with ABT: 300 mg/kg oral plus ABT 100 mg/kg i.p.; for histopathological evaluation of liver, co-treatment with BSO: 300 mg/kg oral plus BSO 650 mg/kg i.p., 6 or 24 h
Method: Male 6-week-old KunMing (KM) mice were purchased from the Animal Institute of the Tianjin University of Traditional Chinese Medicine (Tianjin, China), and were used after a 1-week acclimatization period. The animals were housed in mice cages in a unidirectional airflow room under controlled conditions (20–24 °C, 12:12-h light:dark cycles, and free access to water). We assured that all animals received humane care according to the criteria outlined in the “Guide for the Care and Use of Laboratory Animals” prepared by the National Academy of Sciences and published by the National Institutes of Health ((NIH) publication 86–23 revised 1985).
In the hepatotoxicity study, the mice were randomly assigned to 22 groups (n = 10/group). The mice were intraperitoneally injected with BSO (650 mg/kg) in saline (0.2 mL/20 g). The intraperitoneal dosing of ABT (100 mg/kg) in saline (0.2 mL/20 g) was simultaneous with the BSO dosing. […] Food was removed 14–16 h before BSO dosing, and was supplied again 6 h after administration of the test compounds. At 6 and 24 h, blood was collected by eyeball removal, and then the liver was removed. Plasma was separated from these blood samples, and alanine aminotransferase (ALT) was determined with a commercial kit, the GPT-UV test (Nanjing jiancheng Bioengineering Institute). A piece of each liver sample was fixed in 10% formalin, embedded in paraffin wax, sectioned, and stained with hematoxylin and eosin for histopathological evaluation.
Statistical analysis. The results from the serum ALT assay were analyzed by Kruskal–Wallis non-parametric analysis of variance followed by Mann–Whitney’s U test. For the data of the GSH assay and CYP450s relative activity, comparisons between the two groups were made by independent-samples t test. SPASS 11.5 was used for these statistical analyses. Differences were considered significant when p < 0.05 or p < 0.01.

CYP3A4 = CYP3A4 (Homo sapiens, UniProt P08684); assay: IC50 shift assay (pre-incubation with/without NADPH); format: in vitro ADME; settings: for IC50: HLM; for IC50 Shift (fold): IC50 (−) NADPH versus (+) NADPH pre-incubation
Method: IC50 shift assay. In the present study, an IC50 shift assay was performed using a two-step procedure. […] After pre-incubation, a 0.02 mL aliquot of the mixture was added to a mixture containing a standard CYP substrate (final concentrations at the Km) in 0.18 mL of potassium phosphate buffer to measure CYP activities. After incubation for 15 min at 37 °C, the reactions were ceased by adding four volumes of pre-cooled methanol. The supernatants were centrifuged at 14,000 rpm for 15 min and then stored at −20 °C until the LC/MS/MS analysis of metabolites.
Analysis of samples. The LC/MS/MS method was conducted as described in [59].
IC50 value calculation. The IC50 value was calculated using GraphPad Prism (version 4.0) software (GraphPad Software, San Diego, CA, USA).

[1] = Phase I metabolism in human liver microsomes, metabolite quantitation by UPLC-MS/MS MRM; format: in vitro ADME
Method: (§1) Phase I Metabolism. […] Subsequently, 150 μL of NADPH solution (final concentration of 1 mM) was added to each reaction mixture. After incubation at 37 °C for 90 min in a shaking water bath, the reaction was terminated by adding 600 μL of ice-cold methanol. The contents were vortexed for 30 s and then centrifuged at 4000 rpm for 15 min. The metabolites of psoralen and isopsoralen in the supernatant were identified by UPLC-MS/MS.
(§2) Metabolite analysis by UPLC-MS/MS. The UPLC/MS/MS method was carried out using a Waters Acquity UPLC Sample Manager and a Waters Acquity UPLC Binary Solvent Manager connected to a Waters Quattro Premier XE triple-quadruple mass spectrometer equipped with a combined ESI probe and Mass Lynx 1.4 software (Waters, Milford, MA, USA). An Acquity UPLC BEH C18 column (1.7 µm, 2.1 mm × 100 mm) was used. The instrument settings were as follows: ESI+; source temperature, 120 °C; dissolution temperature, 350 °C; capillary voltage, 3.2 kV; dissolution N2, 600 L/h; cone N2, 50 L/h. Acquisition was carried out from m/z 50 Da to 1000 Da in the total ion scan mode. MS/MS spectra were acquired from m/z 50 Da to 600 Da in the daughter ion scan mode. The solvent system consisted of solvent A (0.1% CH3COOH) and solvent B (100% ACN). The flow rate was 0.2 mL/min. The gradient elution method was 5 to 80% B over 12 min, followed by 5% B from 12 to 15 min.
(§3) Quantitation analysis of psoralen and isopsoralen metabolites by UPLC-MS/MS. […] The HPLC method and electrospray ionization were performed with the same conditions as those for metabolite analysis by UPLC-MS/MS in liver microsomes, except for the cone (30 V) and collision energy (20 V).

[2] = Phase I metabolism in mice liver microsomes, metabolite quantitation by UPLC-MS/MS MRM; format: in vitro ADME
Method: as §1, §2, §3

patients = test system: patients; design: method as in doi:10.5021/ad.1995.7.1.51; settings: 4 of 80 patients, within 3.5–20 months of commencement of PUVA 5-MOP; cited from earlier work
animals = test system: animals; design: method as in PMID 19640237; settings: 560 mg/kg daily for 12 days; cited from earlier work
mice = settings: oral 40 mg daily for 28 days in mice; cited from earlier work
[3] = 300 mg/kg oral in combination with BSO 650 mg/kg i.p., 6 h
[4] = 300 mg/kg oral in combination with BSO 650 mg/kg i.p., 24 h
[5] = MRM mode, parent 50 μM, HLM 1.0 mg/mL, NADPH 1 mM, 90 min
[6] = MRM mode, parent 50 μM, MLM 1.0 mg/mL, NADPH 1 mM, 90 min

CYP3A4, sequence (P08684 whole entry): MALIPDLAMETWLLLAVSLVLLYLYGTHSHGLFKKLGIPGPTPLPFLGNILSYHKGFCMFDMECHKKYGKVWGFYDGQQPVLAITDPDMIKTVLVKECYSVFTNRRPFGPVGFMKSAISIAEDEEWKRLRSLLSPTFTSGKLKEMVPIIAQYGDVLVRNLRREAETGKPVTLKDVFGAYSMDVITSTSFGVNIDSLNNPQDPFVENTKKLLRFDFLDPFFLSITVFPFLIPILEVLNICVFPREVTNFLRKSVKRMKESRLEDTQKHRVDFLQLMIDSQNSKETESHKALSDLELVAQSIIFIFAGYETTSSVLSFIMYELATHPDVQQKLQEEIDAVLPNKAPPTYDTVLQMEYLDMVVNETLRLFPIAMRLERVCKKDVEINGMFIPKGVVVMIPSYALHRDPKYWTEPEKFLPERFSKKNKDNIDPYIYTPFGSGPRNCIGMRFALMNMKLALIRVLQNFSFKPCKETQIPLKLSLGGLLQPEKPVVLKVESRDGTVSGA

O=c1ccc2cc3ccoc3cc2o1 [Psoralen]
ALT activity with additional ABT treatment (KunMing (KM) mice): completely suppressed the elevation of ALT activity
histopathological evaluation of liver, with ABT (KunMing (KM) mice): completely relieved the granular degeneration and vacuolation
plasma ALT activity (KunMing (KM) mice; [3]): 59.90 IU/L
plasma ALT activity (KunMing (KM) mice; [4]): 326.07 IU/L
hepatic GSH level with ABT (KunMing (KM) mice; at 24 h): ABT prevented the decrease
histopathological evaluation of liver, co-treatment with BSO (KunMing (KM) mice): did not aggravate the histopathology
histopathological evaluation of liver (KunMing (KM) mice; 300 mg/kg oral, alone, 6 h): diffuse granular degeneration
plasma ALT activity (KunMing (KM) mice; 300 mg/kg oral, alone, 6 h): 42.17 IU/L
histopathological evaluation of liver (KunMing (KM) mice; 300 mg/kg oral, alone, 24 h): diffuse vacuolation
plasma ALT activity (KunMing (KM) mice; 300 mg/kg oral, alone, 24 h): 128.42 IU/L
hepatic GSH level (KunMing (KM) mice; 300 mg/kg oral, alone, at 24 h): 11.26 ± 3.67 µM/g protein
IC50 (CYP3A4; 30 min pre-incubation with NADPH, read-out: IC50 (+) NADPH): 19.5 ± 1.04 µM
IC50 (CYP3A4; 30 min pre-incubation without NADPH, read-out: IC50 (−) NADPH): > 200 µM

O=c1ccc2cc3c(cc2o1)OC(O)C3O (stereo not drawn) [M5]
Peak Area HLM [1, 5]: 61,016
Peak Area MLM [2, 6]: 102,180

O=c1ccc2cc(O)c3occc3c2o1 [M′1]
Peak Area HLM [1, 5]: 1288
Peak Area MLM [2, 6]: 14,513

O=c1ccc2ccc3c(c2o1)C(O)C(O)O3 (stereo not drawn) [M′5]
Peak Area HLM [1, 5]: 1627
Peak Area MLM [2, 6]: 7725

CCCCS(=N)(=O)CCC(N)C(=O)O [BSO, L-buthi-onine-S, R-sulfoxinine, reference compound]
plasma ALT activity after sole treatment (KunMing (KM) mice; BSO 650 mg/kg i.p. or ABT 100 mg/kg i.p. alone, at 24 h): no significant changes
hepatic GSH level after treatment with BSO alone (KunMing (KM) mice; BSO 650 mg/kg i.p., over 24 h): time-dependent decrease at least for 6 h, while returning to a normal level at 24 h
liver hazard (pathological section) after BSO alone (KunMing (KM) mice; BSO 650 mg/kg i.p., over 24 h): without hazard to the liver

O=C(O)/C=C\c1ccc2occc2c1O [M′3]
Peak Area HLM [1, 5]: 312
Peak Area MLM [2, 6]: 418

COc1c2ccoc2cc2oc(=O)ccc12 [5-MOP, 5-Methoxypsoralen]
patients with transient elevations of liver enzymes (patients): 5%
liver effect of high-dose treatment (animals): hepatocyte changes

6-carboxymethyl-7-hydroxyl-coumarin [M′4]
Peak Area HLM [1, 5]: 34,274
Peak Area MLM [2, 6]: 96,828

O=c1ccc2ccc3occc3c2o1 [Isopsoralen]
ALT activity with additional ABT treatment (KunMing (KM) mice): completely suppressed the elevation of ALT activity
histopathological evaluation of liver, with ABT (KunMing (KM) mice): completely relieved the granular degeneration and vacuolation
plasma ALT activity (KunMing (KM) mice; [3]): 30.08 IU/L
plasma ALT activity (KunMing (KM) mice; [4]): 68.99 IU/L
hepatic GSH level with ABT (KunMing (KM) mice; at 24 h): ABT prevented the decrease
histopathological evaluation of liver, co-treatment with BSO (KunMing (KM) mice): did not aggravate the histopathology
histopathological evaluation of liver (KunMing (KM) mice; 300 mg/kg oral, alone, 6 h): weak granular degeneration
plasma ALT activity (KunMing (KM) mice; 300 mg/kg oral, alone, 6 h): 22.73 IU/L
histopathological evaluation of liver (KunMing (KM) mice; 300 mg/kg oral, alone, 24 h): diffuse vacuolation
plasma ALT activity (KunMing (KM) mice; 300 mg/kg oral, alone, 24 h): 43.20 IU/L
hepatic GSH level (KunMing (KM) mice; 300 mg/kg oral, alone, at 24 h): 9.94 ± 8.57 µM/g protein
IC50 (CYP3A4; IC50 (+) NADPH, 30 min pre-incubation with NADPH): 9.59 ± 1.04 µM
IC50 Shift (fold) (CYP3A4): 10.1 fold
IC50 Shift (fold) (CYP3A4; listed as isopsoralen): > 3 fold
IC50 (CYP3A4; IC50 (−) NADPH, 30 min pre-incubation without NADPH): 96.8 ± 2.21 µM
liver injury findings (mice): elevated serum ALT, AST, and/or ALP levels

O=c1ccc2cc3ccoc3c(O)c2o1 [M2]
Peak Area HLM ([1]; human, microsomes, 1.5 h, 50 μM, pH 7.4): 502
Peak Area MLM ([2]; mouse, microsomes, 1.5 h, 50 μM, pH 7.4): 8655

O=C(O)Cc1cc2ccc(=O)oc2cc1O [M4, 6-carboxymethyl-7-hydroxyl-coumarin]
Peak Area HLM [1, 5]: 66,831
Peak Area MLM [2, 6]: 98,864

O=c1ccc2c(O)c3ccoc3cc2o1 [M1]
Peak Area HLM [1, 5]: 557
Peak Area MLM [2, 6]: 1019

O=c1ccc2c(O)cc3occc3c2o1 [M′2]
Peak Area HLM [1, 5]: 1349
Peak Area MLM [2, 6]: 4707

O=c1ccc2c(O)c3ccoc3c(O)c2o1 [M3]
Peak Area HLM [1, 5]: 529
Peak Area MLM [2, 6]: 164
